{"source": "paper PMC5914052", "about": "“ATR kinase inhibitors NVP-BEZ235 and AZD6738 effectively penetrate the brain after systemic administration” (Radiation Oncology (London, England), 2018)", "key": {"[1]": {"test": "Pharmacokinetics after i.p. delivery: blood and brain concentration by HPLC/MS", "assay_type": "in vivo, CD-1 mice", "conditions": "25 mg/Kg i.p.; for concentration at 1 h / concentration at 2 h / concentration at 6 h / concentration at 8 h: mouse, ip, tumor-free CD-1 mice", "method": "Tumor-free 8-weeks old CD-1 mice (Envigo, http://www.envigo.com) were inoculated i.p. with 25 mg/Kg body weight of NVP-BEZ235 or AZD6738. 1, 2, 6 and 8 h later, blood was collected by retro-orbital bleeding after which the mice were euthanized by CO2 asphyxiation and the brains explanted. Blood and brain samples were then extracted and NVP-BEZ235 and AZD6738 concentrations determined by High Performance Liquid Chromatography (HPLC)/mass spectrometry (MS) as described.\nThe biodistribution and pharmacokinetics of these ATRi, in particular the concentration reached in the brain after i.p. delivery, is crucial to determine optimal tumor radio-sensitization conditions in vivo. The presence of genuine NVP-BEZ235 and AZD6738 in the mouse blood and brain after i.p. delivery was investigated using HPLC/MS. Figure 1a and 1c show the isotopic patterns of NVP-BEZ235 and AZD6738 respectively, as determined by MS. A logarithmic relationship was found between abundance of NVP-BEZ235 (Fig. 1b) and AZD6738 (Fig. 1d) (expressed in arbitrary units) and their concentrations. For both NVP-BEZ235 and AZD6738, the Limit of Quantitation (LoQ) was 10 × 10^− 9 M. Tumor-free mice were inoculated i.p. with 25 mg/Kg body weight of NVP-BEZ235 (Fig. 1f) or AZD6738 (Fig. 1i). Mouse ID numbers are indicated at the top of Fig. 1f and I for the sake of reference. Blood samples were then withdrawn retro-orbitally after 1, 2, 6 and 8 h (Fig. 1g and k). Immediately after blood sampling, the animals were euthanized and their brains removed (Fig. 1e and h). All samples were homogenized and extracted concomitantly and its ATRi content determined by HPLC/MS. […] This value returned close to the LoQ (12 × 10^− 9 M) 8 h after the i.p. delivery (Fig. 1e).\nFig. 1 Pharmacokinetics of ATRi studied by HPLC/MS in positive polarity. a Isotopic pattern of NVP-BEZ235. b Relationship between HPLC/MS-determined abundance and concentration of NVP-BEZ235. The limit of quantitation (LoQ) was 10 × 10^− 9 M. c Isotopic pattern of AZD6738. d Relationship between HPLC/MS-determined abundance and concentration of AZD6738. The limit of quantitation (LoQ) was 10 × 10^− 9 M. e-g BBB crossing by NVP-BEZ235. Tumor-free mice were inoculated i.p. with 25 mg/Kg body weight of NVP-BEZ235 (f). At the indicated times [T (h)] blood was withdrawn retroorbitally for plasma isolation and analysis (g). Mice were then euthanized and the brains explanted (e). All blood and brain samples were then resuspended in water/methanol, homogenized, centrifuged and the supernatant determined for its NVP-BEZ235 concentration using HPLC/MS as described under Methods and Materials. Concentration values (× 10^− 9 M) are shown at the top of (e) and (g) and illustrated at half-panel by the area of a colored triangle. S.D. of values determined by this procedure is on average ± 31%. Mouse ID numbers are shown at the top of F for the sake of reference. h-k As in E-G but with AZD6738 TEXT PRINTED IN THE PICTURE: (e) NVP-BEZ235: [NVP-BEZ235] x 10^-9 M: 36 (T (h): 1; Brain); [NVP-BEZ235] x 10^-9 M: 111 (T (h): 2; Brain); [NVP-BEZ235] x 10^-9 M: 44 (T (h): 6; Brain); [NVP-BEZ235] x 10^-9 M: 12 (T (h): 8; Brain) | (g) NVP-BEZ235: [NVP-BEZ235] x 10^-9 M: 146 (T (h): 1; Blood); [NVP-BEZ235] x 10^-9 M: 32 (T (h): 2; Blood); [NVP-BEZ235] x 10^-9 M: 28 (T (h): 6; Blood); [NVP-BEZ235] x 10^-9 M: 12 (T (h): 8; Blood) | (h) AZD6738: [AZD6738] x 10^-9 M: 480 (T (h): 1; Brain); [AZD6738] x 10^-9 M: 380 (T (h): 2; Brain); [AZD6738] x 10^-9 M: 80 (T (h): 6; Brain); [AZD6738] x 10^-9 M: 9 (T (h): 8; Brain) | (k) AZD6738: [AZD6738] x 10^-9 M: 760 (T (h): 1; Blood); [AZD6738] x 10^-9 M: 1480 (T (h): 2; Blood); [AZD6738] x 10^-9 M: 140 (T (h): 6; Blood); [AZD6738] x 10^-9 M: 40 (T (h): 8; Blood)"}, "[2]": {"test_system": "COMI GIC-driven orthotopic GB", "conditions": "for Effect on survival of irradiated animals: 25 mg/Kg i.p. + 0.5 Gy IR, three consecutive days, versus vehicle+IR; for Median animal survival: 25 mg/Kg i.p. followed 4 h later by 0.5 Gy IR to the head, at d22, d23 and d24, vehicle (DMSO)+IR 99 days"}, "[3]": {"test_system": "ATR", "conditions": "in cells, cited from earlier work"}, "[4]": {"test_system": "PI3K/mTOR pathway", "conditions": "cited from earlier work; for IC50: in cells"}, "[5]": {"test": "Brain histopathology (H/E) of tumor-bearing mice treated with ATRi+IR", "conditions": "H/E staining at d88"}, "[6]": {"test": "Tolerability of NVP-BEZ235 doses above 25 mg/Kg in animals", "assay_type": "in vivo", "conditions": "our animals, data not shown", "text": "Gil del Alcazar and coworkers have described radiosensitization of orthotopic GB by NVP-BEZ235 using the established glioma cell line U87 [15]. The U87-driven tumors yet poorly mimic the infiltrative and neovascularization growth properties of clinical GB [17]. Further, the U87 cell line was recently reported to represent a mix-up with another cell line. In order to investigate the radiosensitization properties of NVP-BEZ235 towards orthotopic GB driven by primary GIC that more faithfully mimic the clinical tumors growth, [17] we preliminarily investigated the pharmacokinetics of NVP-BEZ235 using HPLC/MS. […] The early termination of recent NVP-BEZ235 clinical trials due to elevated toxicity may confirm that safety dosing of NVP-BEZ235 should be thoroughly investigated prior to use. […] (Fig. 1e). […] NVP-BEZ235 can diffuse to brain tissues at pharmacologically active levels after systemic administration, albeit the presence of the efflux ABC-transporters (in particular ABCG2) at the BBB may in part restrict its brain penetration. In a preliminary tumor radiosensitization study, we then developed primary adult COMI tumors in NOD SCID mice, whose immunodeficient phenotype is required for reproducible engraftment in virtually 100% of mice (Fig. 2a). […]"}, "[7]": {"conditions": "mouse, in vivo"}, "[8]": {"test_system": "orthotopic xenograft models of GB", "design": "method as in PMID 27542970", "conditions": "nude rats and NOD/SCID mice; cited from earlier work"}, "[9]": {"conditions": "brain, read-out: Brain concentration"}, "[10]": {"conditions": "plasma, read-out: Blood concentration"}}, "note": "Read-outs that look alike come from different tables or passages of the source.", "data": [{"compound": "C[C@@H]1COCCN1c1cc(C2([S@](C)(=N)=O)CC2)nc(-c2cc[nH]c3nccc2-3)n1", "note": "[AZD6738]", "values": [{"measurement": "Brain concentrations achievable after i.p. administration relative to NVP-BEZ235", "setting": "[1]; AZD6738 versus NVP-BEZ235", "result": "[…]"}, {"measurement": "concentration at 1 h", "setting": "[1]; [9]", "result": 0.48, "unit": "µM"}, {"measurement": "concentration at 2 h", "setting": "[1]; [9]", "result": 0.38, "unit": "µM"}, {"measurement": "concentration at 6 h", "setting": "[1]; [9]", "result": 0.08, "unit": "µM"}, {"measurement": "concentration at 8 h", "setting": "[1]; [9]", "result": 0.009, "unit": "µM"}, {"measurement": "concentration at 1 h", "setting": "[1]; [10]", "result": 0.76, "unit": "µM"}, {"measurement": "concentration at 2 h", "setting": "[1]; [10]", "result": 1.48, "unit": "µM"}, {"measurement": "concentration at 6 h", "setting": "[1]; [10]", "result": 0.14, "unit": "µM"}, {"measurement": "concentration at 8 h", "setting": "[1]; [10]", "result": 0.04, "unit": "µM"}, {"measurement": "Effect on survival of irradiated animals", "setting": "[2]", "result": "could not observe any survival improvement"}, {"measurement": "Median animal survival", "setting": "[2]", "result": 101, "unit": "days"}, {"measurement": "IC50", "setting": "[3]; read-out: IC50 for ATR kinase inhibition in cells", "result": "[…]"}, {"measurement": "Inhibition of related kinases in the PI3K/mTOR pathway", "setting": "[4]", "result": "does not inhibit significantly"}, {"measurement": "Brain histology variation versus DMSO+IR", "setting": "[5]", "result": "No significant histology variations"}]}, {"compound": "Cn1c(=O)n(-c2ccc(C(C)(C)C#N)cc2)c2c3cc(-c4cnc5ccccc5c4)ccc3ncc21", "note": "[NVP-BEZ235]", "values": [{"measurement": "Decrease of blood concentration from 1 h to 2 h", "setting": "[1]; 1 h versus 2 h", "result": "> 4", "unit": "fold"}, {"measurement": "concentration at 1 h", "setting": "[1]; [9]", "result": 0.036, "unit": "µM"}, {"measurement": "concentration at 2 h", "setting": "[1]; [9]", "result": 0.111, "unit": "µM"}, {"measurement": "concentration at 6 h", "setting": "[1]; [9]", "result": 0.044, "unit": "µM"}, {"measurement": "concentration at 8 h", "setting": "[1]; [9]", "result": 0.012, "unit": "µM"}, {"measurement": "concentration at 1 h", "setting": "[1]; [10]", "result": 0.146, "unit": "µM"}, {"measurement": "concentration at 2 h", "setting": "[1]; [10]", "result": 0.032, "unit": "µM"}, {"measurement": "concentration at 6 h", "setting": "[1]; [10]", "result": 0.028, "unit": "µM"}, {"measurement": "concentration at 8 h", "setting": "[1]; [10]", "result": 0.012, "unit": "µM"}, {"measurement": "Toxicity of doses higher than 25 mg/Kg i.p.", "setting": "[6]", "result": "significant toxicity"}, {"measurement": "Effect on survival of irradiated animals", "setting": "[2]", "result": "no elongation of median survival"}, {"measurement": "Median animal survival", "setting": "[2]", "result": 86, "unit": "days"}, {"measurement": "Brain histology variation versus DMSO+IR", "setting": "[7]", "result": "No significant histology variations"}, {"measurement": "IC50", "setting": "[3]; read-out: IC50 for ATR inhibition in cells", "result": 0.021, "unit": "µM"}, {"measurement": "IC50", "setting": "[4]; S473-Akt, read-out: Concentration giving 50% reduction of S473-Akt levels in cells", "result": 0.008, "unit": "µM"}, {"measurement": "IC50", "setting": "[4]; T308-Akt, read-out: Concentration giving 50% reduction of T308-Akt levels in cells", "result": 0.03, "unit": "µM"}, {"measurement": "Side effects of doses higher than 25 mg/Kg", "setting": "[8]", "result": "severe side effects"}, {"measurement": "Survival benefit or inhibition of tumour growth", "setting": "[8]", "result": "no survival benefit or inhibition of tumour growth"}]}]}
